Data: ChEMBL document CHEMBL3751686, “Novel benzoxepine-1,2,3-triazole hybrids: synthesis and pharmacological evaluation as potential antibacterial and anticancer agents” (Medchemcomm, 2015)
In brackets after ≈: the same amount, converted by molar mass. Activity calls are given as the source filed them. The rule behind the calls is not given here.

Legend:
Pseudomonas aeruginosa [1] = assay: Antibacterial activity against Pseudomonas aeruginosa MTCC 6642 at 0.4 mg/50 uL incubated overnight by agar-well diffusion analysis; format: functional
Staphylococcus aureus [2] = assay: Antibacterial activity against Staphylococcus aureus at 0.4 mg/50 uL incubated overnight by agar-well diffusion analysis; format: functional
HEK293 = assay: Cytotoxicity against HEK293 cells after 48 hrs by SRB assay; format: cell-based; conditions: human, hek293, 48 h
Escherichia coli [3] = assay: Antibacterial activity against Escherichia coli MTCC 1563 at 0.4 mg/50 uL incubated overnight by agar-well diffusion analysis; format: functional
[4] = Cytotoxicity against human HCT15 cells assessed as cell growth at 80 ug/ml after 48 hrs by SRB assay; format: functional; conditions: HCT-15, 48 h, read-out: Activity
Klebsiella pneumoniae [5] = assay: Antibacterial activity against Klebsiella pneumoniae at 0.4 mg/50 uL incubated overnight by agar-well diffusion analysis; format: functional
NCI-H226 [6] = assay: Cytotoxicity against human NCI-H226 cells after 48 hrs by SRB assay; format: functional; conditions: NCI-H226, 48 h
[7] = Cytotoxicity against human HCT15 cells after 48 hrs by SRB assay; format: functional; conditions: HCT-15, 48 h; for CC50: read-out: LC50 (the source's name)
Pseudomonas aeruginosa [8] = assay: Antibacterial activity against Pseudomonas aeruginosa MTCC 6642 at 0.04 mg/50 uL incubated overnight by agar-well diffusion analysis; format: functional
Klebsiella pneumoniae [9] = assay: Antibacterial activity against Klebsiella pneumoniae at 0.04 mg/50 uL incubated overnight by agar-well diffusion analysis; format: functional
Staphylococcus aureus [10] = assay: Antibacterial activity against Staphylococcus aureus at 0.04 mg/50 uL incubated overnight by agar-well diffusion analysis; format: functional
Escherichia coli [11] = assay: Antibacterial activity against Escherichia coli MTCC 1563 at 0.04 mg/50 uL incubated overnight by agar-well diffusion analysis; format: functional
NCI-H226 [12] = assay: Cytotoxicity against human NCI-H226 cells assessed as cell growth at 80 ug/ml after 48 hrs by SRB assay; format: functional; conditions: NCI-H226, 48 h, read-out: Activity

Structure (SMILES)	diameter of the inhibition zone (DIZ) (Pseudomonas aeruginosa [1]) [mm]	diameter of the inhibition zone (DIZ) (Staphylococcus aureus [2]) [mm]	diameter of the inhibition zone (DIZ) (Escherichia coli [3])	diameter of the inhibition zone (DIZ) (Klebsiella pneumoniae [5])	further results
Cc1cccc2c1OCCC(Cn1cc(COc3cccc4cccnc34)nn1)=C2Cl	18	10			
Cc1ccc(-c2cn(CC3=C(Cl)c4ccccc4OCC3)nn2)cc1	12	10	9 mm		Activity (HEK293): Non-toxic; growth at 80 µg/mL [4]: 55%
Cc1cccc2c1OCCC(Cn1cc(-c3ccccc3)nn1)=C2Cl	11		25 mm	9 mm	
ClC1=C(Cn2cc(COc3cccc4cccnc34)nn2)CCOc2ccccc21		8	11 mm	inactive	
COc1cccc2c1C(=O)c1c(O)c3c(c(O)c1C2=O)C[C@@](O)(C(=O)CO)C[C@@H]3O[C@H]1C[C@H](N)[C@H](O)[C@H](C)O1 [DOXORUBICIN]					GI50 (NCI-H226 [6]): < 10 µg/mL; TGI (NCI-H226 [6]): < 10 µg/mL; GI50 [7]: < 10 µg/mL; TGI [7]: 36.1 µg/mL (≈ 66.4 µM); CC50 [7]: > 80 µg/mL
Cc1cccc2c1OCCC(Cn1cc(COc3ccc4ccc(=O)oc4c3)nn1)=C2Cl	14	12		inactive	Activity (HEK293): Non-toxic; growth at 80 µg/mL [4]: 86%
Cc1cc(=O)oc2cc(OCc3cn(CC4=C(Cl)c5cc(Cl)ccc5OCC4)nn3)ccc12	18	12	14 mm		
CCn1cc(C(=O)O)c(=O)c2cc(F)c(N3CCN(C)CC3)cc21 [PEFLOXACIN]					diameter of the inhibition zone (DIZ) (Pseudomonas aeruginosa [8]): 28 mm; diameter of the inhibition zone (DIZ) (Klebsiella pneumoniae [9]): 35 mm; diameter of the inhibition zone (DIZ) (Staphylococcus aureus [10]): 36 mm; diameter of the inhibition zone (DIZ) (Escherichia coli [11]): 31 mm
Cc1ccc(-c2cn(CC3=C(Cl)c4cc(Cl)ccc4OCC3)nn2)cc1	12		13 mm	10 mm	
Cc1ccc(-c2cn(CC3=C(Cl)c4cccc(C)c4OCC3)nn2)cc1	15	7	20 mm	17 mm	Activity (HEK293): Non-toxic; growth at 80 µg/mL [4]: 58%
Cc1ccc2c(c1)C(Cl)=C(Cn1cc(COc3ccc4ccc(=O)oc4c3)nn1)CCO2	18	10	16 mm		GI50 (NCI-H226 [6]): 41.3 µg/mL (≈ 91.8 µM); LC50 (NCI-H226 [6]): > 80 µg/mL; TGI (NCI-H226 [6]): > 80 µg/mL; GI50 [7]: 52.5 µg/mL (≈ 117 µM); TGI [7]: > 80 µg/mL; CC50 [7]: > 80 µg/mL; Activity (HEK293): Non-toxic; growth at 80 µg/mL (NCI-H226 [12]): 8%; growth at 80 µg/mL [4]: 33%
O=c1ccc2ccc(OCc3cn(CC4=C(Cl)c5cc(Cl)ccc5OCC4)nn3)cc2o1	11	10	inactive	12 mm	
Cc1cccc2c1OCCC(Cn1cc(COc3ccc4c(C)cc(=O)oc4c3)nn1)=C2Cl	11	11			
O=c1ccc2ccc(OCc3cn(CC4=C(Cl)c5ccccc5OCC4)nn3)cc2o1	12	10	inactive	11 mm	
Cc1ccc2c(c1)C(Cl)=C(Cn1cc(-c3ccccc3)nn1)CCO2	16			9 mm	
ClC1=C(Cn2cc(-c3ccccc3)nn2)CCOc2ccccc21	13	7	inactive	18 mm	Activity (HEK293): Non-toxic; growth at 80 µg/mL (NCI-H226 [12]): 73%; growth at 80 µg/mL [4]: 61%
ClC1=C(Cn2cc(COc3cccc4cccnc34)nn2)CCOc2ccc(Cl)cc21	10	12	10 mm	12 mm	
Cc1ccc(-c2cn(CC3=C(Cl)c4cc(C)ccc4OCC3)nn2)cc1	10	8	10 mm		
Cc1ccc2c(c1)C(Cl)=C(Cn1cc(COc3ccc4c(C)cc(=O)oc4c3)nn1)CCO2	16		inactive	12 mm	
Cc1cc(=O)oc2cc(OCc3cn(CC4=C(Cl)c5ccccc5OCC4)nn3)ccc12	12	11	11 mm	7 mm	
